Source: publication PMC8347432 (2021)

Key:
[1] = test system: octamer duplex d(GCGATCGC)2 (3) (DNA, duplex) GCGATCGC; experiment: 1H NMR titration (chemical shift); settings: 25 mM NaCl, 25 mM K3PO4, D2O buffer, pH 6.0, 10 °C, 0.29 mM compound
[2] = test system: octamer duplex d(GCGATCGC)2 (3) (DNA, duplex) GCGATCGC; experiment: DOSY NMR (PGSE diffusion coefficients); settings: 25 mM NaCl, 25 mM K3PO4, D2O buffer, pH 6.4, 10 °C, 0.29 mM compound

SMILES	Ka [1]	Ka ([2]; 0.87 mM octamer)	Ka ([1]; 5.89 ± 1.07 omitting H12 and H14)	Ka ([2]; 0.92 mM octamer)
CCc1c2c(nc3ccc(O)c(CN4CCC4)c13)-c1cc3c(c(=O)n1[C@@H]2CO)COC(=O)[C@]3(O)CC	3.76 ± 1.19 mM⁻¹	2.0 ± 0.3 mM⁻¹		
CCc1c2c(nc3ccc(O)c(CN4CCC4)c13)-c1cc3c(c(=O)n1[C@H]2CO)COC(=O)[C@]3(O)CC			5.00 ± 2.02 mM⁻¹	5.9 ± 0.3 mM⁻¹
